Like-named read-outs stand apart in the source and are kept apart here.

For one data set, the target named is chymotrypsin (Bos taurus, UniProt P00766). As to the kind of experiment: competitive inhibition of chymotrypsin, standard assay using a BTEE substrate. Format: biochemical. How it is done: The set of molecules where X=CH2 was tested as competitive inhibitiors of the enzyme chymotrypsin in a standard assay using a BTEE substrate.
For data set [1] the following is noted: boiling in 6 N NaOH for 24 hrs; cited from earlier work.

A word on the Ki: it is a dissociation constant, usually derived from enzyme kinetics or from competition with a known ligand. A higher Ki goes with a looser hold on the target. On to `CC(=O)[N-][N+]1(CC(C)O)CCCCC1` (centres unmarked) [R1=Me, R2=Me], for which, on chymotrypsin (competitive inhibition, BTEE substrate, set of molecules where X=CH2), the Ki result is “not be an inhibitor”. As for `O=C([N-][N+]1(CC(O)c2ccccc2)CCCCC1)c1ccccc1` (centres unmarked) [R1=Ph, R2=Ph], the affinity on chymotrypsin corresponds to a Ki of 500 µM.

The compound `CC(O)C[N+]1([N-]C(=O)c2ccccc2)CCCCC1` (centres unmarked) [R1=Me, R2=Ph] had a Ki at chymotrypsin of 130 µM. On the same count and under the same terms, the figure for `CC(=O)[N-][N+]1(CC(O)c2ccccc2)CCCCC1` (centres unmarked) [R1=Ph, R2=Me] is 200 µM. As to `CN(C)C.NC(=O)c1ccccc1` [trimethyl amine benzamide], the hydrolytic stability entry in data set [1] was “unchanged”.
